pKd: −log10 of the molar value. Bridge positions count the residues as written; N and C are the ends. Square brackets hold non-standard residues; d marks the D form. Peptide text beside a SMILES is read from it. * marks the point of attachment. NH(1-deoxy-D-glucityl) = OC[C@@H](O)[C@@H](O)[C@H](O)[C@@H](O)CN*; Trp(1-Me,7-Cl) = Cn1cc(C[C@H](N)C(=O)O)c2cccc(Cl)c21; Ala(2-NH2-4-pyridyl) = Nc1cc(C[C@H](N)C(=O)O)ccn1; dPhe(3-CONH2) = NC(=O)c1cccc(C[C@@H](N)C(=O)O)c1; Trp(1-Me) = Cn1cc(C[C@H](N)C(=O)O)c2ccccc21; 3Pal(6-NH2) = Nc1ccc(C[C@H](N)C(=O)O)cn1; NMe3Pal = CN[C@@H](Cc1cccnc1)C(=O)O; NMeF = CN[C@@H](Cc1ccccc1)C(=O)O; hCit = NC(=O)NCCCC[C@H](N)C(=O)O; 4Pal = N[C@@H](Cc1ccncc1)C(=O)O; NMeE = CN[C@@H](CCC(=O)O)C(=O)O; Cit = NC(=O)NCCC[C@H](N)C(=O)O; NMeN = CN[C@@H](CC(N)=O)C(=O)O; Cba = N[C@@H](CC1CCC1)C(=O)O; NMeA = CN[C@@H](C)C(=O)O

We go through 15 compounds from patent US20260098061A1, “EPHA2-BINDING PENDING PEPTIDE AND COMPOSITION COMPRISING SAME” (PeptiDream Inc., priority 2022, published 2026).

This experiment concerns the target T1, Recombinant Human EphA2 Fc Protein (Homo sapiens, UniProt P29317).
T1 construct: purchased Elabscience
Briefly: SPR interaction analysis (Biacore T200), kinetics of peptides against EphA2. Type of experiment: binding. Conditions: Recombinant Human EphA2 Fc Protein captured by Human Antibody Capture kit; single-cycle kinetics; 25° C.; HBS-P+ buffer with 1% DMSO. In outline: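 On a Biacore T200 at 25° C, Fc-tagged human EphA2 was captured via anti-human antibody; peptides ran as five serial dilutions in HBS-P+ pH 7.4 with 1% DMSO by single-cycle kinetics. Baseline-subtracted data fitted for ka and kd, from which KD was derived.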
In general terms: SPR reads the build-up and loss of mass on a sensor chip optically.

For orientation: pKd means −log10 of the Kd, conventionally taken in molar units. For the compound `CC(C)C[C@@H]1NC(=O)[C@H](Cc2ccncc2)NC(=O)[C@H](Cc2ccccc2)NC(=O)CSC[C@@H](C(=O)NCC(N)=O)NC(=O)[C@H](Cc2cn(C)c3ccccc23)NC(=O)[C@H](Cc2ccccc2)N(C)C(=O)[C@H](Cc2cn(C)c3ccccc23)NC(=O)CNC1=O` [PDC_EphA2-00020295-L092, F-4Py-L-G-W1Me-MeF-W1Me-C-G-NH2] ({CH2CO}-F[4Pal]LG[Trp(1-Me)][NMeF][Trp(1-Me)]CG-NH2; thioether N-8), the negative-log Kd (pKd) is 6.40 to 7.00.

Take `CC(C)C[C@@H]1NC(=O)[C@H](Cc2ccnc(N)c2)NC(=O)[C@H](Cc2ccccc2)NC(=O)CSC[C@@H](C(N)=O)NC(=O)[C@H](Cc2cn(C)c3ccccc23)NC(=O)[C@H](Cc2ccccc2)N(C)C(=O)[C@H](Cc2cn(C)c3ccccc23)NC(=O)[C@H](CCCCNC(N)=O)NC1=O` [PDC_EphA2-00020708, F-4Py2NH2-L-Hcit-W1Me-MeF-W1Me-C-NH2] ({CH2CO}-F[Ala(2-NH2-4-pyridyl)]L[hCit][Trp(1-Me)][NMeF][Trp(1-Me)]C-NH2; thioether N-8): the negative-log Kd (pKd) is 6.40 to 7.00. Then `C[C@H]1NC(=O)CSC[C@@H](C(=O)NCC(N)=O)NC(=O)[C@H](Cc2cn(C)c3ccccc23)NC(=O)[C@H](CCCCNC(N)=O)NC(=O)[C@H](Cc2cn(C)c3ccccc23)NC(=O)[C@H](CC(N)=O)NC(=O)[C@H]([C@@H](C)O)NC(=O)[C@H](CC2CCC2)NC(=O)[C@H](CC(N)=O)NC(=O)[C@H](Cc2ccccc2)N(C)C1=O` [PDC_EphA2-00021407-L092, da-MeF-N-Cba-T-N-W1Me-Hcit-W1Me-C-G-NH2] ({CH2CO}-[dA][NMeF]N[Cba]TN[Trp(1-Me)][hCit][Trp(1-Me)]CG-NH2; thioether N-10), with 6.40 to 7.00; and `CC(C)C[C@@H]1NC(=O)[C@H](CC(N)=O)NC(=O)[C@H](Cc2ccncc2)NC(=O)[C@H](Cc2ccccc2)NC(=O)CSC[C@@H](C(=O)NCC(N)=O)NC(=O)[C@H](Cc2cn(C)c3ccccc23)NC(=O)[C@H](Cc2ccc(N)nc2)NC(=O)[C@H](Cc2cn(C)c3ccccc23)NC(=O)[C@H](Cc2ccccc2)N(C)C(=O)[C@H](CCC(=O)O)NC1=O` [PDC_EphA2-00022057-L092, F-4Py-N-L-E-MeF-W1Me-3Py6NH2-W1Me-C-G-NH2] ({CH2CO}-F[4Pal]NLE[NMeF][Trp(1-Me)][3Pal(6-NH2)][Trp(1-Me)]CG-NH2; thioether N-10), with 7.00 to 8.00; and `CC(C)C[C@@H]1NC(=O)[C@H](CC(N)=O)NC(=O)[C@H](Cc2c[nH]cn2)NC(=O)[C@H](Cc2ccccc2)NC(=O)CSC[C@@H](C(N)=O)NC(=O)[C@H](Cc2cn(C)c3ccccc23)NC(=O)[C@H](CCCCNC(N)=O)NC(=O)[C@H](Cc2cn(C)c3ccccc23)NC(=O)[C@H](Cc2ccccc2)N(C)C(=O)[C@H](CO)NC1=O` [PDC_EphA2-00022417, F-H-N-L-S-MeF-W1Me-Hcit-W1Me-C-NH2] ({CH2CO}-FHNLS[NMeF][Trp(1-Me)][hCit][Trp(1-Me)]C-NH2; thioether N-10), with 7.00 to 8.00.

For the compound `CC(C)C[C@@H]1NC(=O)[C@H](Cc2ccnc(N)c2)NC(=O)[C@H](Cc2ccccc2)NC(=O)CSC[C@@H](C(=O)NCC(N)=O)NC(=O)[C@H](Cc2cn(C)c3ccccc23)NC(=O)[C@H](Cc2ccccc2)N(C)C(=O)[C@H](Cc2cn(C)c3ccccc23)NC(=O)[C@H](CCCCNC(N)=O)NC1=O` [PDC_EphA2-00022601, F-4Py2NH2-L-Hcit-W1Me-MeF-W1Me-C-G-NH2] ({CH2CO}-F[Ala(2-NH2-4-pyridyl)]L[hCit][Trp(1-Me)][NMeF][Trp(1-Me)]CG-NH2; thioether N-8), the pKd was 6.40 to 7.00. In the case of `CC(=O)NCCCC[C@H](NC(=O)[C@@H]1CSCC(=O)N[C@@H](Cc2ccccc2)C(=O)N[C@@H](Cc2ccnc(N)c2)C(=O)N[C@@H](CC(C)C)C(=O)N[C@@H](CCCCNC(N)=O)C(=O)N[C@@H](Cc2cn(C)c3ccccc23)C(=O)N(C)[C@@H](Cc2ccccc2)C(=O)N[C@@H](Cc2cn(C)c3ccccc23)C(=O)N1)C(N)=O` [PDC_EphA2-00022602, F-4Py2NH2-L-Hcit-W1Me-MeF-W1Me-C-KAc-NH2] ({CH2CO}-F[Ala(2-NH2-4-pyridyl)]L[hCit][Trp(1-Me)][NMeF][Trp(1-Me)]CK(Ac)-NH2; thioether N-8), the pKd was 6.40 to 7.00. Then `CC(=O)NCCCC[C@@H](NC(=O)[C@@H]1CSCC(=O)N[C@@H](Cc2ccccc2)C(=O)N[C@@H](Cc2ccnc(N)c2)C(=O)N[C@@H](CC(C)C)C(=O)N[C@@H](CCCCNC(N)=O)C(=O)N[C@@H](Cc2cn(C)c3ccccc23)C(=O)N(C)[C@@H](Cc2ccccc2)C(=O)N[C@@H](Cc2cn(C)c3ccccc23)C(=O)N1)C(N)=O` [PDC_EphA2-00022603, F-4Py2NH2-L-Hcit-W1Me-MeF-W1Me-C-dkAc-NH2] ({CH2CO}-F[Ala(2-NH2-4-pyridyl)]L[hCit][Trp(1-Me)][NMeF][Trp(1-Me)]C[dK](Ac)-NH2; thioether N-8), with 6.40 to 7.00; and `CC(C)C[C@@H]1NC(=O)[C@H](CC(N)=O)NC(=O)[C@H](Cc2c[nH]cn2)NC(=O)[C@H](Cc2ccccc2)NC(=O)CSC[C@@H](C(=O)NCC(N)=O)NC(=O)[C@H](Cc2cn(C)c3ccccc23)NC(=O)[C@H](CCCCNC(N)=O)NC(=O)[C@H](Cc2cn(C)c3ccccc23)NC(=O)[C@H](Cc2ccccc2)N(C)C(=O)[C@H](CO)NC1=O` [PDC_EphA2-00022606, F-H-N-L-S-MeF-W1Me-Hcit-W1Me-C-G-NH2] ({CH2CO}-FHNLS[NMeF][Trp(1-Me)][hCit][Trp(1-Me)]CG-NH2; thioether N-10), with 7.00 to 8.00. Under `CC(=O)NCCCC[C@H](NC(=O)[C@@H]1CSCC(=O)N[C@@H](Cc2ccccc2)C(=O)N[C@@H](Cc2c[nH]cn2)C(=O)N[C@@H](CC(N)=O)C(=O)N[C@@H](CC(C)C)C(=O)N[C@@H](CO)C(=O)N(C)[C@@H](Cc2ccccc2)C(=O)N[C@@H](Cc2cn(C)c3ccccc23)C(=O)N[C@@H](CCCCNC(N)=O)C(=O)N[C@@H](Cc2cn(C)c3ccccc23)C(=O)N1)C(N)=O` [PDC_EphA2-00022607, F-H-N-L-S-MeF-W1Me-Hcit-W1Me-C-KAc-NH2] ({CH2CO}-FHNLS[NMeF][Trp(1-Me)][hCit][Trp(1-Me)]CK(Ac)-NH2; thioether N-10) stands 7.00 to 8.00; under `CC(=O)NCCCC[C@@H](NC(=O)[C@@H]1CSCC(=O)N[C@@H](Cc2ccccc2)C(=O)N[C@@H](Cc2c[nH]cn2)C(=O)N[C@@H](CC(N)=O)C(=O)N[C@@H](CC(C)C)C(=O)N[C@@H](CO)C(=O)N(C)[C@@H](Cc2ccccc2)C(=O)N[C@@H](Cc2cn(C)c3ccccc23)C(=O)N[C@@H](CCCCNC(N)=O)C(=O)N[C@@H](Cc2cn(C)c3ccccc23)C(=O)N1)C(N)=O` [PDC_EphA2-00022608, F-H-N-L-S-MeF-W1Me-Hcit-W1Me-C-dkAc-NH2] ({CH2CO}-FHNLS[NMeF][Trp(1-Me)][hCit][Trp(1-Me)]C[dK](Ac)-NH2; thioether N-10), 7.00 to 8.00; under `CC(C)C[C@@H]1NC(=O)[C@H](CC(N)=O)NC(=O)[C@H](Cc2cccnc2)N(C)C(=O)[C@@H](Cc2cccc(C(N)=O)c2)NC(=O)CSC[C@@H](C(N)=O)NC(=O)[C@H](CC(N)=O)NC(=O)[C@H]([C@@H](C)O)NC(=O)[C@H](Cc2cn(C)c3ccccc23)NC(=O)[C@H](CCC(=O)NC[C@H](O)[C@@H](O)[C@H](O)[C@H](O)CO)NC(=O)[C@H](Cc2cn(C)c3c(Cl)cccc23)NC(=O)[C@H](Cc2ccccc2)N(C)C(=O)[C@H](CC(N)=O)NC1=O` [PDC_EphA2-00026424, df3CON-Me3Py-N-L-N-Me3Py-W1Me7Cl-Qglucamine-W1Me-T-N-C-NH2] ({CH2CO}-[dPhe(3-CONH2)][NMe3Pal]NLN[NMeF][Trp(1-Me,7-Cl)]E(NH(1-deoxy-D-glucityl))[Trp(1-Me)]TNC-NH2; thioether N-12), greater than 9.00. As to `CC(C)C[C@@H]1NC(=O)[C@H](CC(N)=O)NC(=O)[C@H](Cc2cccnc2)N(C)C(=O)[C@@H](Cc2cccc(C(N)=O)c2)NC(=O)CSC[C@@H](C(N)=O)NC(=O)[C@H](CC(N)=O)NC(=O)[C@H]([C@@H](C)O)NC(=O)[C@H](Cc2cn(C)c3ccccc23)NC(=O)[C@H](CCC(=O)NC[C@H](O)[C@@H](O)[C@H](O)[C@H](O)CO)NC(=O)[C@H](Cc2cn(C)c3c(Cl)cccc23)NC(=O)[C@H](CC(N)=O)N(C)C(=O)[C@H](CC(N)=O)NC1=O` [PDC_EphA2-00026425, df3CON-Me3Py-N-L-N-MeN-W1Me7Cl-Qglucamine-W1Me-T-N-C-NH2] ({CH2CO}-[dPhe(3-CONH2)][NMe3Pal]NLN[NMeN][Trp(1-Me,7-Cl)]E(NH(1-deoxy-D-glucityl))[Trp(1-Me)]TNC-NH2; thioether N-12), the pKd is greater than 9.00.

Consider `CC(C)C[C@@H]1NC(=O)[C@H](CC(N)=O)NC(=O)[C@H](Cc2ccccc2)N(C)C(=O)[C@@H](Cc2cccc(C(N)=O)c2)NC(=O)CSC[C@@H](C(N)=O)NC(=O)[C@H](CC(N)=O)NC(=O)[C@H]([C@@H](C)O)NC(=O)[C@H](Cc2cn(C)c3ccccc23)NC(=O)[C@H](CCCNC(N)=O)NC(=O)[C@H](Cc2cn(C)c3c(Cl)cccc23)NC(=O)[C@H](CCC(=O)O)N(C)C(=O)[C@H](CC(N)=O)NC1=O` [PDC_EphA2-00026426, df3CON-Me3Py-N-L-N-MeN-W1Me7Cl-Cit-W1Me-T-N-C-NH2] ({CH2CO}-[dPhe(3-CONH2)][NMeF]NLN[NMeE][Trp(1-Me,7-Cl)][Cit][Trp(1-Me)]TNC-NH2; thioether N-12), for which the pKd was greater than 9.00. Under `CC(C)C[C@@H]1NC(=O)[C@H](Cc2ccnc(N)c2)NC(=O)[C@H](Cc2ccccc2)NC(=O)CSC[C@@H](C(N)=O)NC(=O)[C@H](Cc2cn(C)c3ccccc23)NC(=O)[C@H](Cc2ccccc2)N(C)C(=O)[C@H](Cc2cn(C)c3ccccc23)NC(=O)[C@H](C)N(C)C1=O` [PDC_EphA2-00026479, F-4Py2NH2-L-MeA-W1Me-MeF-W1Me-C-NH2] ({CH2CO}-F[Ala(2-NH2-4-pyridyl)]L[NMeA][Trp(1-Me)][NMeF][Trp(1-Me)]C-NH2; thioether N-8) stands 6.40 to 7.00.
